The results in this text go back to patent US20080260661A1, “Aminobutadiene-Based Uv Screens” (Fuji Photo Film B.V., priority 2004, published 2008).

The structures appear in SMILES notation.

A short description of the first data set: Absorption maximum of the structures. Type of data set: physicochemical. As to conditions: Table 1; measured in methanol, or if not soluble in methanol, in ethanol. How it is done: Absorption maxima of the structures in Tables 1 to 3 are measured in methanol, or if not soluble in methanol, in ethanol.
`CCCCC(CC)COC(=O)C(=C/C=C/N(C)C)C(=O)OCC(CC)CCCC` (stereo not drawn) [Structure 1.3i] registered an Absorption maximum of 374 nm.

Regarding `CCCCN(/C=C/C=C(\C(C)=O)S(=O)(=O)c1ccc(C)cc1)CCCC` [Structure 1.7r], the Absorption maximum came to 385 nm.

`CCCCCCN(/C=C/C=C(/C(=O)OCC)S(=O)(=O)c1ccccc1)CCCCCC` [Structure 1.1i] yielded an Absorption maximum of 373 nm.

As for `CCCCCCN(/C=C/C=C(\C(=O)OCCOc1ccc(C(C)(C)CC)cc1C(C)(C)CC)S(=O)(=O)c1ccc(C)cc1)CCCCCC` [Structure 1.4i], the Absorption maximum came to 374 nm.

Compound `CCCCCCN(/C=C/C=C1C(=O)N(C)N(C)C1=O)CCCCCC` [Structure 1.9r] displayed an Absorption maximum of 387 nm.

In the case of `CCCCN(/C=C/C=C(\C(=O)OC)S(=O)(=O)c1ccc(C(C)(C)C)cc1)CCCC` [Structure 1.2i], the Absorption maximum was determined as 373 nm.

Turning to `CCCCCCN(/C=C/C=C1C(=O)N(C)C(=O)N(C)C1=O)CCCCCC` [Structure 1.10r], the Absorption maximum is listed as 388 nm.

Compound `CCCCN(/C=C/C=C1C(=O)CC(C)(C)CC1=O)CCCC` [Structure 1.6r] had an Absorption maximum of 389 nm.

For `CCCCCCN(/C=C/C=C(C#N)C#N)CCCCCC` [Structure 1.5i], the Absorption maximum amounted to 378 nm.

In the case of `CCCCCCCCCCOC(=O)/C(=C/C=C/N(C)C)C(C)=O` [Structure 1.12r], the Absorption maximum is 394 nm.

On to `CCCCCCN(/C=C/C=C(C(C)=O)C(C)=O)CCCCCC` [Structure 1.13r], for which the Absorption maximum was determined as 395 nm.

Take `CCCCCCN(/C=C/C=C(\C(C)=O)S(=O)(=O)c1ccccc1)CCCCCC` [Structure 1.8r]: the Absorption maximum is given as 385 nm.

Staying with this data set, now noted: Table 2; measured in methanol, or if not soluble in methanol, in ethanol.
The compound `CCCCCCCCCCOC(=O)/C(=C\C=C\N1CCCCC1)S(=O)(=O)c1ccccc1` [Structure 2.1i] yielded an Absorption maximum of 375 nm.

Take `CC(=O)/C(=C\C=C\N1CCOCC1)S(=O)(=O)c1ccccc1` [Structure 2.2r]: the Absorption maximum is listed as 383 nm.

As for `CCCCC(CC)COC(=O)C(=CC=CN1CCCCC1)C(C)=O` (stereo not drawn) [Structure 2.3r], the Absorption maximum is 395 nm.

Staying with this data set, now noted: Table 3; measured in methanol, or if not soluble in methanol, in ethanol.
In turn, `CCCCCCOC(=O)/C(=C/C=C1/OCC(C)(C)N1C)S(=O)(=O)c1ccccc1` [Structure 3.2i] displayed an Absorption maximum of 362 nm.

Compound `Cc1ccc(S(=O)(=O)/C(C#N)=C\C=C2\OCC(C)(C)N2C)cc1` [Structure 3.1i] showed an Absorption maximum of 361 nm.

As to `CCCCCCCCCCN1CCC/C1=C/C=C(/C(C)=O)S(=O)(=O)c1ccccc1` [Structure 3.7r], the Absorption maximum worked out at 392 nm.

Take `CCCCCCCCCCN1/C(=C\C=C(\C(C)=O)S(=O)(=O)c2ccccc2)OCC1(C)C` [Structure 3.4i]: the Absorption maximum is reported as 373 nm.

`CCCCCCCCCCN1/C(=C\C=C(\C(=O)OCCCCCC)S(=O)(=O)c2ccc(C)cc2)SCC1C` (stereo not drawn) [Structure 3.8r]: the Absorption maximum was 392 nm.

In turn, `CCCCCCCCCCCCOC(=O)/C(C#N)=C/C=C1/OCC(C)(C)N1C` [Structure 3.5i] registered an Absorption maximum of 374 nm.

In turn, `CCCCCCCCCCN1CCC/C1=C/C=C(/C(=O)OCC)S(=O)(=O)c1ccc(OC)cc1` [Structure 3.6i] had an Absorption maximum of 375 nm.

`CCCCCCCCCCCCN1/C(=C\C=C(C#N)C#N)OCC1(C)C` [Structure 3.3i] showed an Absorption maximum of 372 nm.

A further data set can be described thus: Appearance of formulation after application to the transparent substrate. In kind it is physicochemical.
Details: not given
`CCCCCCCCCCOC(=O)/C(=C/C=C/N(C)C)C(C)=O` [Structure 1.12r]: the “Appearance (colour) of formulation” value was “had a colourless appearance after application to the transparent substrate, except for structure 1.12r”.
